Test results from patent US20160326540A1, “Methods and Compositions Employing a Sulfonylurea-Dependent Stabilization Domain” (PIONEER HI-BRED INTERNATIONAL, INC., priority 2013, published 2016).

Assays:
[1] = system: S. cereviseae BY4742; experiment: GFP destabilization/re-stabilization assay of TetR::AcGFP fusions in yeast liquid culture +/- atc; assay type: cell-based, Saccharomyces cereviseae; details: TetR::AcGFP fusion, galactose induced, 6 hrs growth, FIG. 3
From the text: The third mutation, 122D (Reichheld and Davidson 2006), is a constitutive mutation in the presence or absence of ligand. Both L17G and I22D lie in the DNA binding domain (DBD) whereas G96R is in alpha helix 6 within the ligand binding domain (LBD). To test the effect of these mutations for ligand gated stability a GFP destabilization/re-stabilization assay (FIG. 1) was created. To do this a fusion between the coding regions of TetR B (Wray et al. 1981) and AcGFP (Gurskaya et al. 2003) by PCR amplifying the TetR region from plasmid pVER7568 using primers REPS' and TetR::AcGFP Rev and the AcGFP coding region from plasmid pHD1010 with primers TetR::AcGFP For and AcGFP3′ (Table 2) was created. The PCR products were then combined and subjected to overlap extension PCR using primers REPS' and AcGFP3′. The resulting full length PCR fusion product was then cloned into the Galactose inducible yeast expression vector p415GAL (ATCC#87330) as an XbaI/HindIII fragment. […] 100 ul aliquots of resuspended cells were placed into clear bottom black 96-well plates and their fluorescence determined with a Typhoon Laser Image Scanner (GE: […]). […]

[2] = system: S. cereviseae BY4742; experiment: GFP fluorescence of wt and L17G repressor::GFP fusions in yeast on agar +/- atc, ethametsulfuron or chlorsulfuron, incl. dose response; assay type: cell-based, Saccharomyces cereviseae; details: 5-10 uM atc, destabilized (L17G) fusion, FIG. 7
From the text: Next, we wanted to determine if a similar ligand enhanced protein accumulation effect would translate to our SU repressor backbones. […] Given the number of changes to the parent sequence and the 100% change in ligand preference it was not clear if they would behave in a similar manner. […] This was done by PCR amplifying the above coding regions with primers REPS' and EsR(L3-23) Rev, EsR(L15-20) Rev, or CsR(L4-20) Rev (Table 2), digesting each PCR product with StuI/BamHI and cloning each product into StuI/BamHI digested backbone fragments of pHD1184 and pHD2012 to give both wt and L17G mutant DNA binding domain combinations, respectively for most of the SuR's (schematic in FIG. 4). The resulting vectors (Table 4) were then transformed into S. cereviseae BY4742 as for pHD1184 (above). Each strain was then grown overnight in YPD medium and the cultures arrayed in 96-well format such that there were four repeats of every strain per plate. The array was then stamped onto 40 ml DOBA agar supplemented with 2% galactose, 0.025% casamino acids, and either 10 uM atc, ethametsulfuron, chlorsulfuron or no addition as the control. The plates were grown two days at 30° C. and imaged using a Typhoon laser scanning imager (GE) with excitation and emission set at 488 and 520 nm respectively. […]

Substance	accumulation of GFP compared to wt TetR [1]	GFP response to ligand (dose response) [2] [×]
TetR(G96R)	significant negative impact	–
TetR(L17G)	significant negative impact	~10
